Results as given in PubChem BioAssay AID1033 (Sanford-Burnham Center for Chemical Genomics, 2008).
The source made the active and inactive calls. The rule behind the calls is not given here.

What follows are compounds tested against Chaperone protein DnaK (Escherichia coli (strain K12)) (UniProt P0A6Y8) (assay: binders of DnaK substrate-binding domain, biophysical, NMR, chaperone (AID 1033)). Details: Purified DnaK SBD, NMR ligand binding.
Sequence of Chaperone protein DnaK (Escherichia coli (strain K12)) (P0A6Y8 whole entry, looked up, the tested form may be a part): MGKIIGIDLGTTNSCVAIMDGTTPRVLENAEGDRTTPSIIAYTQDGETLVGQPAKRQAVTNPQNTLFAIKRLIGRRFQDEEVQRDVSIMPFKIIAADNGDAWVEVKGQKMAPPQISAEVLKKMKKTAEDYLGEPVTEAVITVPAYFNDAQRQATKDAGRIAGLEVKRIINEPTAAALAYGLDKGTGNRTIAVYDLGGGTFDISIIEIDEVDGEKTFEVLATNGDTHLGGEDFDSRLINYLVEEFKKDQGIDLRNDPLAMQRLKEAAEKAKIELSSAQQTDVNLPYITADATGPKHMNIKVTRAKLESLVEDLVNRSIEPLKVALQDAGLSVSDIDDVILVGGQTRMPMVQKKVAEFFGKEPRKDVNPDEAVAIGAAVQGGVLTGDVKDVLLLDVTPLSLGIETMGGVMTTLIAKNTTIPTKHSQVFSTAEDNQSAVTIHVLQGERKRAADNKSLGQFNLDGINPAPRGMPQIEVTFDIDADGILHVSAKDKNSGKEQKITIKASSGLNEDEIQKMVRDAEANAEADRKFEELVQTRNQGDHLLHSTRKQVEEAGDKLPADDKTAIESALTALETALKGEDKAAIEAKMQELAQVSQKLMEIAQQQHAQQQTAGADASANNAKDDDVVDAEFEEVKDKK
With `C[C@@H]1CC[C@@]2(OC1)O[C@H]1CC3C4CC[C@H]5C[C@@H](O)CC[C@]5(C)C4CC[C@]3(C)[C@H]1[C@@H]2C` (stereo not given in full) the Kd was > 4 mM (inactive). In the case of `Cc1sc2nc[nH]c(=S)c2c1C`, the Kd is reported as > 4 mM (inactive). For `Cc1cc(C(=O)NC(C)c2ccncc2)cs1` (stereo not given), the Kd was > 4 mM (inactive). For `Cc1cc(NC(=O)CCCn2cnc([N+](=O)[O-])n2)no1`, the Kd was > 4 mM (inactive). `Nc1cc(=O)[nH]c(=S)n1-c1ccc(F)cc1` was tested, and the Kd was > 4 mM (inactive). For `O=C(O)c1ccc(N2CCCCC2)cc1`, the Kd was > 4 mM (inactive). `CN1CCC[C@H]1c1cccnc1` was tested, and the Kd was > 4 mM (inactive). In the case of `C=C1C(N)CC2CC1C2(C)C` (stereo not given), the Kd is reported as > 4 mM (inactive). With `Cn1cnc2nc3n(c2c1=O)CCC3` the Kd was > 4 mM (inactive). `COc1cc2c(cc1-c1coc3c4c(c(OC)cc3c1=O)OC(C)(C)C=C4)OCO2` was tested, and the Kd was > 4 mM (inactive). `O=C1c2ccccc2C(=O)N1Cc1ccco1` was tested, and the Kd was > 4 mM (inactive). For `Nc1ccc(N2CCCCC2)cc1`, the Kd was > 4 mM (inactive). In the case of `Nc1nncn1C(=O)c1c(Cl)cccc1Cl`, the Kd is reported as > 4 mM (inactive). `CN(C)c1ccc(CNn2cnnc2)cc1` was tested, and the Kd was > 4 mM (inactive). With `N#Cc1cnc(N2CCCCC2)nc1N` the Kd was > 4 mM (inactive). With `COC(=O)c1ccc2nsnc2c1` the Kd was > 4 mM (inactive). With `Oc1ccc(-n2ccnc2)cc1` the Kd was > 4 mM (inactive). With `Nc1cccc(NC(=O)c2cccs2)c1` the Kd was > 4 mM (inactive). With `NS(=O)(=O)c1ccc(NC(=O)c2ccccc2F)cc1` the Kd was > 4 mM (inactive). In the case of `O=C(O)C1COc2ccccc2C1` (stereo not given), the Kd is reported as > 4 mM (inactive). In the case of `COC(=O)c1c(C)cc(OC)cc1O`, the Kd is reported as > 4 mM (inactive). In the case of `NCCc1c[nH]c2ccccc12`, the Kd is reported as > 4 mM (inactive). In the case of `Cn1cc(C(=O)N/N=C/c2ccccc2)ccc1=O`, the Kd is reported as > 4 mM (inactive). In the case of `CCC(C)C(=O)O[C@H]1[C@H](O)C2C(CN3CC(C)CCC3[C@@]2(C)O)C2C[C@]34O[C@]5(O)C(OC(=O)C(C)(O)CC)CC[C@@]3(C)C5C(OC(C)=O)[C@@H](OC(C)=O)C4[C@@]21O` (stereo not given in full), the Kd is reported as > 4 mM (inactive). `COCCn1c(N)nc2c1c(=O)[nH]c(=O)n2C` was tested, and the Kd was > 4 mM (inactive). In the case of `CC(=O)C1=C(O)C(=O)NC1c1ccccc1` (stereo not given), the Kd is reported as > 4 mM (inactive). With `O=C(O)c1cccnc1N1CCCC1` the Kd was > 4 mM (inactive). In the case of `NC(=O)CC1NC(=O)c2ccccc21` (stereo not given), the Kd is reported as > 4 mM (inactive). `Cc1cc2cc(N)ccc2[nH]1` was tested, and the Kd was > 4 mM (inactive). In the case of `Cn1c(O)c(C=NCC2CCNCC2)c(=O)n(C)c1=O`, the Kd is reported as > 4 mM (inactive). `CSc1nnc(-c2ccccc2NC(C)=O)o1` was tested, and the Kd was > 4 mM (inactive). For `CC(C)=CCCC1(C)C=Cc2c(O)c3c(c(CC=C(C)C)c2O1)OC12C(=CC4CC1C(C)(C)OC2(C/C=C(/C)C(=O)O)C4=O)C3=O` (stereo not given), the Kd was > 4 mM (inactive). For `OCc1ncoc1-c1ccccc1`, the Kd was > 4 mM (inactive). For `CCOC(=O)c1ccc(Oc2ccc(C)nn2)cc1`, the Kd was > 4 mM (inactive). In the case of `NC(=O)CC[C@H](N)C(=O)O`, the Kd is reported as > 4 mM (inactive). With `CC(=O)O[C@@H]1CC2C(C)(C)[C@@H](O)CC[C@]2(C)C2CC[C@@]3(C)[C@H](c4ccoc4)OC(=O)[C@H]4O[C@]43[C@@]21C` (stereo not given in full) the Kd was > 4 mM (inactive). `Cc1occc1C(=O)N1CCN(S(C)(=O)=O)CC1` was tested, and the Kd was > 4 mM (inactive). In the case of `NCc1nnnn1-c1ccccc1`, the Kd is reported as > 4 mM (inactive). `COc1cc(N)ccc1NC(=O)c1cccs1` was tested, and the Kd was > 4 mM (inactive). In the case of `CC(CCC(=O)O)[C@H]1CCC2C3CC[C@@H]4CCCC[C@]4(C)C3CC[C@@]21C` (stereo not given in full), the Kd is reported as > 4 mM (inactive). `O=C(O)C1CC(=O)N(Cc2cccs2)C1` (stereo not given) was tested, and the Kd was > 4 mM (inactive). With `Nc1cccnc1Oc1ccc(F)cc1F` the Kd was > 4 mM (inactive). In the case of `CN1CCC(NC(=O)C2CCCO2)CC1` (stereo not given), the Kd is reported as > 4 mM (inactive). With `c1ccc2c(c1)[nH]c1cnccc12` the Kd was > 4 mM (inactive). For `CC(C)(C)P(=O)(O)c1ccccc1`, the Kd was > 4 mM (inactive). `CC(C)(C)CC(=O)NNC(=O)c1cnccn1` was tested, and the Kd was > 4 mM (inactive). `Cc1cc(=O)[nH]c(NCc2cccnc2)n1` was tested, and the Kd was > 4 mM (inactive). With `CC(=O)O[C@@H]1CC2C(C)(C)CCC(=O)[C@]2(C)C2CC[C@@]3(C)[C@H](c4ccoc4)OC(=O)C4OC43[C@@]21C` (stereo not given in full) the Kd was > 4 mM (inactive). With `O=S1(=O)CCC(N2CCCCC2)C1` (stereo not given) the Kd was > 4 mM (inactive). With `NC(Cn1ccc(=O)c(O)c1)C(=O)O` (stereo not given) the Kd was > 4 mM (inactive). With `OCc1ccccc1N1CCOCC1` the Kd was > 4 mM (inactive). `Nc1nnc(Cc2ccc(Cl)cc2)s1` was tested, and the Kd was > 4 mM (inactive). `CC(C)=CC(=O)Nc1ccccc1Br` was tested, and the Kd was > 4 mM (inactive). In the case of `CC(=O)NCCc1cc2ccc(C)c(C)c2[nH]c1=O`, the Kd is reported as > 4 mM (inactive). With `Cn1nnc2c(N3CCC(C(N)=O)CC3)ncnc21` the Kd was > 4 mM (inactive). In the case of `NC(=O)c1cccc(Cl)n1`, the Kd is reported as > 4 mM (inactive). In the case of `CN1CCC(N2CCN(C)CC2)CC1`, the Kd is reported as > 4 mM (inactive). In the case of `NCc1ccc2c(c1)OCCCO2`, the Kd is reported as > 4 mM (inactive). With `COc1c2ccoc2c(OC)c2oc(=O)ccc12` the Kd was > 4 mM (inactive). For `O=C(NCc1ccncc1)c1cccc(F)c1`, the Kd was > 4 mM (inactive). In the case of `CN1CCN(C(=O)Nc2cccc3ccccc23)CC1`, the Kd is reported as > 4 mM (inactive). `Cn1[nH]c(C(F)(F)F)cc1=O` was tested, and the Kd was > 4 mM (inactive). In the case of `O=C1CSC(=Nc2ccc(O)cc2)N1`, the Kd is reported as > 4 mM (inactive). With `CCc1nnc(NC(C)=O)s1` the Kd was > 4 mM (inactive). `O=C(c1ccc(F)cc1)N1CCOCC1` was tested, and the Kd was > 4 mM (inactive). In the case of `Cc1ccc(C(=O)CS(C)(=O)=O)cc1`, the Kd is reported as > 4 mM (inactive). For `COc1ccc(C(N)=O)cc1NC(C)=O`, the Kd was > 4 mM (inactive). For `O=C(NCc1cccc2ccccc12)c1cccs1`, the Kd was < 0.2 mM. For `N/N=C1\CCCc2c1no[n+]2[O-]`, the Kd was > 4 mM (inactive). In the case of `Cc1cc(C)n(-c2ccc(N)cc2)n1`, the Kd is reported as > 4 mM (inactive). `COc1ccc(-c2cc(=O)c3c(OC(C)=O)cc(OC(C)=O)cc3o2)cc1` was tested, and the Kd was > 4 mM (inactive). For `CC1=[N+]([O-])C2(N)CCc3c(no[n+]3[O-])C2(O)C1` (stereo not given), the Kd was > 4 mM (inactive). With `CC(C)=CCCC1(C)C=Cc2c(O)c3c(c(CC=C(C)C)c2O1)OC12C(=CC4CC1C(C)(C)OC2(C/C=C(/C)C(=O)O)C4O)C3=O` (stereo not given) the Kd was > 4 mM (inactive). For `Cc1ccc(CN2CCNC(=O)C2CC(=O)O)o1` (stereo not given), the Kd was > 4 mM (inactive). For `COc1cc(N)ncn1`, the Kd was > 4 mM (inactive). `CC(=O)Nc1ccc(C(=O)NC2CCSC2=O)cc1` (stereo not given) was tested, and the Kd was > 4 mM (inactive). With `CCOC(=O)c1ccc(F)c(F)c1` the Kd was > 4 mM (inactive). With `COC(=O)CCC(C)[C@H]1CCC2C3C(C[C@H](O)[C@@]21C)[C@@]1(C)CC[C@@H](O)C[C@H]1C[C@H]3O` (stereo not given in full) the Kd was > 4 mM (inactive). `NC(=O)CSCc1c(Cl)cccc1Cl` was tested, and the Kd was > 4 mM (inactive). `O=C(/C=C1\SC(=O)NC1=O)NCc1ccccc1` was tested, and the Kd was > 4 mM (inactive). With `Cc1ccc(C(=O)NCCO)c(Cl)c1` the Kd was > 4 mM (inactive). `O=C(O)CCn1c(=O)oc2ccccc21` was tested, and the Kd was > 4 mM (inactive). With `CN(C)S(=O)(=O)NCc1ccc2c(c1)OCO2` the Kd was > 4 mM (inactive). In the case of `O=C(Nc1cnccn1)c1cccc(C(F)(F)F)c1`, the Kd is reported as > 4 mM (inactive). For `CN1C(=O)N(C)C2NC(=O)NC21` (stereo not given), the Kd was > 4 mM (inactive). In the case of `Cc1cc(=O)n(CC(C)C)c(O)c1C#N`, the Kd is reported as > 4 mM (inactive). In the case of `C=C1C2=CC(=O)O[C@@H](c3ccoc3)[C@]2(C)CCC1[C@@]1(C)C=CC(=O)C(C)(C)[C@@H]1CC(=O)OC` (stereo not given in full), the Kd is reported as > 4 mM (inactive). For `NS(=O)(=O)c1ccc2c3c(cccc13)C(=O)N2`, the Kd was > 4 mM (inactive). In the case of `O=c1[nH]c(NCCO)nnc1Cc1ccccc1`, the Kd is reported as > 4 mM (inactive). `COc1c(F)c(F)c(-c2csc(N)n2)c(F)c1F` was tested, and the Kd was > 4 mM (inactive). `Cc1nc2c(=O)[nH]c3ccccc3c2o1` was tested, and the Kd was > 4 mM (inactive). For `CC(=O)Nc1ccc(-c2nc(C)c(C(C)=O)n2O)cc1`, the Kd was > 4 mM (inactive). For `CCNS(=O)(=O)c1cc(Br)ccc1OC`, the Kd was > 4 mM (inactive). For `O=C(O)C1CSC(c2ccc(Cl)cc2)N1` (stereo not given), the Kd was > 4 mM (inactive). `Cc1ccc(/C=N/n2c(C)nnc2C)cc1` was tested, and the Kd was > 4 mM (inactive). For `C#CCCCCCCCCCCCC(O)CC(O)COC(C)=O` (stereo not given), the Kd was > 4 mM (inactive). For `CN1CCOc2cc(C(=O)O)ccc21`, the Kd was > 4 mM (inactive). With `O=C(NC1CCS(=O)(=O)C1)c1ccccc1` (stereo not given) the Kd was > 4 mM (inactive). For `Nc1ccc(-n2cccn2)cc1`, the Kd was > 4 mM (inactive). For `O=C(O)c1cc2ccccc2s1`, the Kd was > 4 mM (inactive). For `O=c1ccc2ccccc2o1`, the Kd was > 4 mM (inactive). `COC(=O)CC1NC2CCCCC2NC1=O` (stereo not given) was tested, and the Kd was > 4 mM (inactive). With `CS(=O)(=O)N1CCN(C(=O)c2ccccc2)C1` the Kd was > 4 mM (inactive). With `C[N+](C)(C)CC(O)CC(=O)O` (stereo not given) the Kd was > 4 mM (inactive). In the case of `O=C(O)Cc1c[nH]c2ccccc12`, the Kd is reported as > 4 mM (inactive). In the case of `O=C1CC(=O)N(c2ccccc2F)C(=S)N1`, the Kd is reported as > 4 mM (inactive). For `CC(CC(=O)NN)C1(O)CCCCC1` (stereo not given), the Kd was > 4 mM (inactive). `COc1cc2c(cc1OC)C1=C(C#N)CCC(=O)N1CC2` was tested, and the Kd was > 4 mM (inactive). In the case of `CC(=O)O[C@@H]1C=C[C@@]2(C)C(C[C@@H](OC(C)=O)[C@@]3(C)C4=CC(=O)O[C@@H](c5ccoc5)[C@]4(C)CCC23)C1(C)C` (stereo not given in full), the Kd is reported as > 4 mM (inactive). With `NC(=O)CCS(=O)(=O)CCN1CCOCC1` the Kd was > 4 mM (inactive). `O=C(O)c1cccc2c1OCC2` was tested, and the Kd was > 4 mM (inactive). For `O=C(Nc1ccon1)c1ccc(Cl)s1`, the Kd was > 4 mM (inactive). With `Cc1cc2ncc(C(=O)O)c(C)n2n1` the Kd was > 4 mM (inactive). `CC(C)C(C)/C=C/C(C)[C@H]1CCC2C3=CCC4CC(=O)CC[C@]4(C)C3CC[C@@]21C` (stereo not given in full) was tested, and the Kd was > 4 mM (inactive). For `CC(=O)NCC1(c2ccccc2)CCOCC1`, the Kd was > 4 mM (inactive). With `Cc1[nH]c2ccccc2c(=O)c1CO` the Kd was > 4 mM (inactive). For `O=C(NCc1n[nH]c(=O)c2ccccc12)C1CC1`, the Kd was > 4 mM (inactive). `Cc1n[nH]c(C)c1-c1ccccc1C(=O)O` was tested, and the Kd was > 4 mM (inactive). With `O=C(Nc1ccccc1CO)c1ccccc1F` the Kd was > 4 mM (inactive). For `NC1=NC(=O)/C(=C/c2cccs2)S1`, the Kd was > 4 mM (inactive).
